These results are taken from ChEMBL document CHEMBL6153141, “Design, Synthesis, and Mechanism Study of Novel BMX Inhibitors Based on the Core of 1,3,5-Triazin-2-Amine for the Treatment of Gastric Carcinoma” (J Med Chem, 2025).

For orientation: IC50 means the concentration that gives 50% inhibition.

Each structure is given as a SMILES string. Active and inactive are the calls of the source. The rule behind the calls is not given here.

In data set [1] the test system is HeLa. Description: Anticancer activity against human HeLa cells assessed as inhibition of cell proliferation incubated for 72 hrs by MTT assay. The format is functional, cell-based. (Formazan colour is commonly taken as a measure of viable cells.)
A short description of data set [2]: Cytotoxicity against H9c2 cells assessed as inhibition of cell proliferation incubated for 72 hrs by MTT assay. It counts as toxicity, cell-based. The note with it: rat.
Data set [3] has as its system HGC-27. Description: Antiproliferative activity against human HGC-27 cells assessed as inhibition of cell viability incubated for 24 to 72 hrs by MTT assay. The note with it: dose <= 50.0 µM, time 24-72 hrs. It counts as functional, cell-based.
Data set [4] deals with HGC-27. Nature of the data set: Induction of apoptosis in human HGC-27 cells assessed as increase in cleaved PARP level incubated for 48 hrs by Western blot analysis. The format is functional, cell-based. Particulars: dose 5-15 µM. For orientation: In western blotting, separated proteins are transferred to a membrane and probed.
Data set [5] addresses Cytoplasmic tyrosine-protein kinase BMX (Homo sapiens) (UniProt P51813). Description: Irreversible inhibition of BMX in human HGC-27 cells at 15 uM preincubated for 48 hrs followed by compound washout and measured within 6 hrs by Western blot analysis. It counts as cell-based.
Data set [6] deals with HGC-27. Description: Inhibition of AKT-mTOR signaling in human HGC-27 cells assessed as decrease in phosphorylated mTOR expression at 5 to 15 uM incubated for 48 hrs by Western blot analysis. It counts as cell-based. The note with it: dose 5-15 µM.
Data set [7] can be described thus: Metabolic stability in human liver microsomes assessed as intrinsic clearance at 100 uM measured upto 60 mins in presence of NADPH by LC-MS/MS analysis. The format is ADME, Microsome. Particulars: read-out: CLH. (In general: Liver microsomes are a subcellular fraction often used to study metabolism.)
For data set [8], the target named is Cytochrome P450 3A4 (Homo sapiens, UniProt P08684). Description: Inhibition of CYP3A4 in human liver microsomes using testosterone as substrate preincubated for 5 mins followed by NADPH addition and measured after 10 mins by LC-MS/MS analysis. The format is ADME, Microsome.
Sequence of Cytochrome P450 3A4 (P08684 whole entry): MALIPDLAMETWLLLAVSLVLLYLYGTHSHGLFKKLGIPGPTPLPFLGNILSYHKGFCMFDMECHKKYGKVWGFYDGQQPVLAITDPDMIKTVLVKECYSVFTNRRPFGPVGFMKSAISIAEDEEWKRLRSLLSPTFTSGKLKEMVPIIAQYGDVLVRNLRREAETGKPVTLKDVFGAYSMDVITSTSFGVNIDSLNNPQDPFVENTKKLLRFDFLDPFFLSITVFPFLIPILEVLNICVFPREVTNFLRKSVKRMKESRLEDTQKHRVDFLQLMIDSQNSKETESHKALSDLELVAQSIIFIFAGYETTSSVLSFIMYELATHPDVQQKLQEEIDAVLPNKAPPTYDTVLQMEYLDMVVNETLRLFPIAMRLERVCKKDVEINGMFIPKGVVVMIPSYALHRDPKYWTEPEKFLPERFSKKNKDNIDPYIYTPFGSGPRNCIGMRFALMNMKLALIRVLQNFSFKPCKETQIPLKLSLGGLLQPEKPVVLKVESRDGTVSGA
Data set [9] can be described thus: Toxicity in female BALB/c nude mouse model xenografted with human HGC-27 cells assessed as effect on liver at 30 mg/kg, ip administered for 21 days by H and E staining based analysis. It counts as organism-based. Particulars: in vivo, 504 h, time 21 day.

Sequence of Cytoplasmic tyrosine-protein kinase BMX (Homo sapiens) (P51813 whole entry): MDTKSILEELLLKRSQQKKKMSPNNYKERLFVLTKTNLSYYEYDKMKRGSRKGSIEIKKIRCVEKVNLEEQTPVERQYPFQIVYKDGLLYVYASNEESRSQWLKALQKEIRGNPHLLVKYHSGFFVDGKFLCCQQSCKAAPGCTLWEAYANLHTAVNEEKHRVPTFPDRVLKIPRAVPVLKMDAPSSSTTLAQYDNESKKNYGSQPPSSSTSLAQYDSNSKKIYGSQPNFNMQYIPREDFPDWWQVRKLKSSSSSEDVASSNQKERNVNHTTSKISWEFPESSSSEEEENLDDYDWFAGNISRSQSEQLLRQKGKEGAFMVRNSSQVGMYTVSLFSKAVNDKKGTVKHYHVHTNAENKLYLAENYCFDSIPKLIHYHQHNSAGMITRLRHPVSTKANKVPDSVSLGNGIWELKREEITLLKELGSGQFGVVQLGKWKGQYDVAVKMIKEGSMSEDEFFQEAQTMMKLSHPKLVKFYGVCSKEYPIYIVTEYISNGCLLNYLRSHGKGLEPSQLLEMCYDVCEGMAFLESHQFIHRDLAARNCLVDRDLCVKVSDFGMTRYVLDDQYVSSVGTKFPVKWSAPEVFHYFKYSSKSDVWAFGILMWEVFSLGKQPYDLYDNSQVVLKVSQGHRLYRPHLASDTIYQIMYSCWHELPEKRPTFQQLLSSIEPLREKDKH

For the molecule `C=CS(=O)(=O)N1CCC[C@@H](Nc2nc(N)nc(Nc3cccc(Oc4ccccc4)c3)n2)C1`, the IC50 in data set [1] is 6.5 µM; in [8], greater than 100 µM. Also, the IC50 at 72 h in data set [2] was greater than 32 µM. Moreover, the Activity result in data set [3] is “Dose-dependent-effect”; in data set [4], “Dose-dependent-effect”; in [9], “Non-toxic”. The inhibition entry in data set [5] and in [6] was “Active” each time. In data set [7], the microsomal CLint at 100 µM stood at 214 µL/min/mg.
